Measurements: patent US20180028480A1, “METHODS OF REDUCING OR PREVENTING OXIDATIVE MODIFICATION OF MEMBRANE POLYUNSATURATED FATTY ACIDS” (Amarin Pharmaceuticals Ireland Limited, priority 2015, published 2018)

Key:
[1] = test system: lipid vesicles enriched with PUFAs and cholesterol; assay: Glucose-induced membrane lipid peroxidation (LOOH) in DLPC/cholesterol multilamellar vesicles (Example 4); type: biochemical; settings: for effect on LOOH formation / lipid peroxidation: 72- and 96-hour time points, 1:30 drug-to-phospholipid mole ratio (FIG. 3)
Procedure: Vitamin E (α-tocopherol) was also purchased from Sigma-Aldrich and prepared in ethanol at 1.0 mM (ε32 3.06×10^4 M^−1 cm^−1 at 294 nm) just prior to experimental use. […] All test compounds were further diluted in ethanol or aqueous buffer as needed. Glucose was prepared in saline buffer (0.5 mM HEPES, 154 mM NaCl, pH 7.3) at 11.0 mM (200 mg/dL). CHOD-iodide color reagent (stock) was prepared, with slight modification, as described by from El-Saadani et al. (J. […] Prior to experimental use, the CHOD reagent was activated by adding 24 μM ethylenediaminetetraacetic acid (EDTA), 20 μM butylated hydroxytoluene (BHT), and 0.2% Triton X-100. Multilamellar vesicles (MLVs) were prepared as binary mixtures of DLPC (1.0 or 2.5 mg total phospholipid per sample) and cholesterol at a fixed cholesterol-to-phospholipid (C/P) mole ratio of 0.6:1. Component lipids (in chloroform) were transferred to 13×100 mm borosilicate culture tubes and combined with vehicle (ethanol) or an equal volume of fatty acid, vitamin E, or ATM stock solutions, each adjusted to achieve desired treatment concentrations. Samples were shell-dried under nitrogen gas and placed under vacuum for 1 h to remove residual solvent. […] Lipid suspensions were then vortexed for 3 min at ambient temperature to form MLVs. All MLV samples were subjected to time-dependent autoxidation by incubating at 37° C. in an uncovered, shaking water bath. This method allows lipid peroxidation to occur gradually without requiring the use of exogenous initiators. Small aliquots (5-100 μL) of each sample were removed, immediately following MLV preparation (0 hour) and after exposing samples to oxidative conditions for 72 or 96 hour, and combined with 1.0 mL of activated CHOD-iodide color reagent. Aliquot volume was reduced with each successive time point to ensure that spectrophotometric readings were within the optimal adsorption range. Test samples were covered and incubated in darkness at room temperature for at least 4 hr. Sample absorbances were then measured against a CHOD blank at 365 nm using a Beckman DU-640 spectrophotometer. The CHOD colorimetric assay is based on the oxidation of iodide (I^−) by lipid hydroperoxide (LOOH) to form triiodide (I3^−), the quantity of which is directly proportional to the amount of LOOH present in the lipid sample. The molar absorptivity (c) of I3^− is 2.46×10^4 M^−1 cm^−1 at 365 nm. […] The concentration of glucose selected was consistent with previous experimental studies of hyperglycemia under controlled laboratory conditions or observed in well-defined animal models of Type II diabetes following a glucose challenge. […] Values in FIG. 1 are mean±S.D. (N=6). […]

[2] = Small angle x-ray diffraction of glucose-treated model membranes: structure and cholesterol domains (Example 4); settings: for effect on membrane structure compared to control: 0 hours, 1:30 drug-to-phospholipid mole ratio, glucose 200 mg/dL
Procedure: Multilamellar vesicles (MLVs) were prepared as binary mixtures of DLPC (1.0 or 2.5 mg total phospholipid per sample) and cholesterol at a fixed cholesterol-to-phospholipid (C/P) mole ratio of 0.6:1. Component lipids (in chloroform) were transferred to 13×100 mm borosilicate culture tubes and combined with vehicle (ethanol) or an equal volume of fatty acid, vitamin E, or ATM stock solutions, each adjusted to achieve desired treatment concentrations. Samples were shell-dried under nitrogen gas and placed under vacuum for 1 h to remove residual solvent. After desiccation, each sample was resuspended in 1.0 mL glucose-containing saline to yield final phospholipid concentrations of 1.0 or 2.5 mg/mL (for lipid peroxidation or x-ray diffraction analysis, respectively). Lipid suspensions were then vortexed for 3 min at ambient temperature to form MLVs.
The membrane structural effects of glucose and the various compounds examined in this study were measured at 0, 72, and 96 hour intervals. Membrane lipid vesicles were oriented for x-ray diffraction analysis as described by others (e.g., Herbette et al., Biophys. J., vol. 20(2), pages 245-272 (1977)). Briefly, a 100 μL aliquot (containing 250 μg MLV) was aspirated from each sample and transferred to a Lucite® sedimentation cell fitted with an aluminum foil substrate upon which a given sample could be collected by centrifugation. Samples were then loaded into a Sorvall AH-629 swinging bucket rotor (DuPont Corp., Wilmington, Del.) and centrifuged at 35,000 g, 5° C., for 90 min.
After centrifugal orientation, sample supernatants were aspirated and aluminum foil substrates, each supporting a single membrane pellet, were removed from the sedimentation cells. […]
The d-space for any given membrane multibilayer is a measurement of the unit cell periodicity of the membrane lipid bilayer (e.g., the distance from the center of one lipid bilayer to the next including surface hydration), and is calculated from Bragg's Law, hλ=2 d sin θ, where h is the diffraction order, λ is the wavelength of the x-ray radiation (1.54 Å), d is the membrane lipid bilayer unit cell periodicity, and θ is the Bragg angle equal to one-half the angle between the incident beam and scattered beam.
The presence of cholesterol domains in a given membrane sample results in the production of distinct Bragg (diffraction) peaks having singular periodicity values of 34 and 17 Å (typically referred to as first- and second-order cholesterol domain peaks). Under the specific temperature and relative humidity conditions established for these experiments, the second-order, 17 Å cholesterol domain peak was well-delineated from other, neighboring cholesterol and phospholipid diffraction peaks and was thus used to quantitate relative cholesterol domain peak intensity. […]

Row | SMILES | effect on LOOH formation / lipid peroxidation [1] | antioxidant effect (LOOH formation), separate treatments ([1]; each at 1.0 μM, glucose 200 mg/dL, 96 hours) | effect on membrane structure compared to control [2] | cholesterol domain peaks ([2]; 96 hours of oxidative conditions) | effect on cholesterol domain formation (cholesterol domain peak intensity) compared to control ([2]; any experimental time point (FIG. 5))
1 | CC/C=C\C/C=C\C/C=C\C/C=C\C/C=C\CCCC(=O)O [EPA, cis-5,8,11,14,17-Eicosapentaenoic acid] | significantly inhibited LOOH formation | separate and potent antioxidant effects | no appreciable effect on membrane structure | – | –
2 | Cc1c(C)c2c(c(C)c1O)CC[C@@](C)(CCC[C@H](C)CCC[C@H](C)CCCC(C)C)O2 [vitamin E, α-tocopherol, reference compound] | no significant effect on lipid peroxidation | – | no appreciable effect on membrane structure | disproportionately greater | no significant effect on cholesterol domain formation
